Test results taken from US20130102619A1, “2-PYRIDYLOXY-4-NITRILE OREXIN RECEPTOR ANTAGONISTS” (priority 2011, published 2013).

Assays:
human orexin-2 receptor [1] = biological target: T1, human orexin-2 receptor (Homo sapiens (Human), UniProt O43614); assay: FLIPR Ca2+ Flux Assay, CHO cells expressing human orexin-2 receptor; assay type: cell-based; settings: 70 pM Ala-6,12 orexin-A agonist, read-out: hOX2R FLIPR IC50
Protocol: (§1) The utility of the compounds in accordance with the present invention as orexin receptor OX1R and/or OX2R antagonists may be readily determined without undue experimentation by methodology well known in the art, including the “FLIPR Ca^2+ Flux Assay” (Okumura et al., Biochem. Biophys. Res. Comm. 280:976-981, 2001). In a typical experiment the OX1 and OX2 receptor antagonistic activity of the compounds of the present invention was determined in accordance with the following experimental method. For intracellular calcium measurements, Chinese hamster ovary (CHO) cells expressing the rat orexin-1 receptor or the human orexin-2 receptor, are grown in Iscove's modified DMEM containing 2 mM L-glutamine, […], 1% hypoxanthine-thymidine supplement, 100 U/ml penicillin, 100 ug/ml streptomycin and 10% heat-inactivated fetal calf serum (FCS). The cells are seeded at 20,000 cells/well into Becton-Dickinson black 384-well clear bottom sterile plates coated with poly-D-lysine. All reagents were from GIBCO-Invitrogen Corp. The seeded plates are incubated overnight at 37° C. and 5% CO2. Ala-6,12 human orexin-A as the agonist is prepared as a 1 mM stock solution in 1% bovine serum albumin (BSA) and diluted in assay buffer (HBSS containing 20 mM HEPES, 0.1% BSA and 2.5 mM probenecid, pH7.4) for use in the assay at a final concentration of 70 pM. Test compounds are prepared as 10 mM stock solution in DMSO, then diluted in 384-well plates, first in DMSO, then assay buffer. On the day of the assay, cells are washed 3 times with 100 ul assay buffer and then incubated for 60 min (37° C., 5% CO2) in 60 ul assay buffer containing 1 uM Fluo-4AM ester, 0.02% pluronic acid, and 1% BSA. The dye loading solution is then aspirated and cells are washed 3 times with 100 ul assay buffer. 30 ul of that same buffer is left in each well. Within the Fluorescent Imaging Plate Reader (FLIPR, Molecular Devices), test compounds are added to the plate in a volume of 25 ul, incubated for 5 min and finally 25 ul of agonist is added. Fluorescence is measured for each well at 1 second intervals for 5 minutes and the height of each fluorescence peak is compared to the height of the fluorescence peak induced by 70 pM Ala-6,12 orexin-A with buffer in place of antagonist. […] Alternatively, compound potency can be assessed by a radioligand binding assay (described in Bergman et. al. Bioorg. Med. Chem. Lett. 2008, 18, 1425-1430) in which the inhibition constant (Ki) is determined in membranes prepared from CHO cells expressing either the OX1 or OX2 receptor. The intrinsic orexin receptor antagonist activity of a compound which may be used in the present invention may be determined by these assays.

human orexin-2 receptor [2] = biological target: T1, human orexin-2 receptor; assay: radioligand binding assay, orexin-2 receptor (membranes from CHO cells); settings: CHO cell membranes, read-out: hOX2 hKi
Protocol: as §1

OX1 receptor (hOX1) = OX1 receptor (hOX1) (Homo sapiens, UniProt O43613); assay: radioligand binding assay, orexin-1 receptor (membranes from CHO cells); settings: CHO cell membranes, read-out: hOX1 hKi
Protocol: In a typical experiment the OX1 and OX2 receptor antagonistic activity of the compounds of the present invention was determined in accordance with the following experimental method. For intracellular calcium measurements, Chinese hamster ovary (CHO) cells expressing the rat orexin-1 receptor or the human orexin-2 receptor, are grown in Iscove's modified DMEM containing 2 mM L-glutamine, […], 1% hypoxanthine-thymidine supplement, 100 U/ml penicillin, 100 ug/ml streptomycin and 10% heat-inactivated fetal calf serum (FCS). The cells are seeded at 20,000 cells/well into Becton-Dickinson black 384-well clear bottom sterile plates coated with poly-D-lysine. All reagents were from GIBCO-Invitrogen Corp. The seeded plates are incubated overnight at 37° C. and 5% CO2. Ala-6,12 human orexin-A as the agonist is prepared as a 1 mM stock solution in 1% bovine serum albumin (BSA) and diluted in assay buffer (HBSS containing 20 mM HEPES, 0.1% BSA and 2.5 mM probenecid, pH7.4) for use in the assay at a final concentration of 70 pM. Test compounds are prepared as 10 mM stock solution in DMSO, then diluted in 384-well plates, first in DMSO, then assay buffer. On the day of the assay, cells are washed 3 times with 100 ul assay buffer and then incubated for 60 min (37° C., 5% CO2) in 60 ul assay buffer containing 1 uM Fluo-4AM ester, 0.02% pluronic acid, and 1% BSA. The dye loading solution is then aspirated and cells are washed 3 times with 100 ul assay buffer. 30 ul of that same buffer is left in each well. Within the Fluorescent Imaging Plate Reader (FLIPR, Molecular Devices), test compounds are added to the plate in a volume of 25 ul, incubated for 5 min and finally 25 ul of agonist is added. Fluorescence is measured for each well at 1 second intervals for 5 minutes and the height of each fluorescence peak is compared to the height of the fluorescence peak induced by 70 pM Ala-6,12 orexin-A with buffer in place of antagonist. […] Alternatively, compound potency can be assessed by a radioligand binding assay (described in Bergman et. al. Bioorg. Med. Chem. Lett. 2008, 18, 1425-1430) in which the inhibition constant (Ki) is determined in membranes prepared from CHO cells expressing either the OX1 or OX2 receptor. The intrinsic orexin receptor antagonist activity of a compound which may be used in the present invention may be determined by these assays.

rat orexin-1 receptor = rat orexin-1 receptor (Rattus norvegicus (Rat), UniProt P56718); assay: FLIPR Ca2+ Flux Assay, CHO cells expressing rat orexin-1 receptor; assay type: cell-based; settings: 70 pM Ala-6,12 orexin-A agonist, read-out: hOX1R FLIPR IC50;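 note: concentration giving 50% inhibition of the agonist-induced calcium response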
Chain of rat orexin-1 receptor (P56718 whole entry): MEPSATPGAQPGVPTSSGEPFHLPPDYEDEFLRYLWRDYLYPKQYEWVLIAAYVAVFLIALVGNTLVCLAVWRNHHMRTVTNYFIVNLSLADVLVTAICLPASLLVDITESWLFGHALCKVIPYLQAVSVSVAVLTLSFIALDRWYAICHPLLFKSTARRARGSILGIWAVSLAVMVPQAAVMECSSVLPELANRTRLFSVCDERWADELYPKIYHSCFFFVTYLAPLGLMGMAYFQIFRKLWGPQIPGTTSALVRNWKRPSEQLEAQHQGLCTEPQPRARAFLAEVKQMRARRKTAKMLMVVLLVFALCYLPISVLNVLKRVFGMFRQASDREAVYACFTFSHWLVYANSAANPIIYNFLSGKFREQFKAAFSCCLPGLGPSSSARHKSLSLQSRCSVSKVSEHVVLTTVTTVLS
Protocol: as §1

T1 sequence (O43614 whole entry): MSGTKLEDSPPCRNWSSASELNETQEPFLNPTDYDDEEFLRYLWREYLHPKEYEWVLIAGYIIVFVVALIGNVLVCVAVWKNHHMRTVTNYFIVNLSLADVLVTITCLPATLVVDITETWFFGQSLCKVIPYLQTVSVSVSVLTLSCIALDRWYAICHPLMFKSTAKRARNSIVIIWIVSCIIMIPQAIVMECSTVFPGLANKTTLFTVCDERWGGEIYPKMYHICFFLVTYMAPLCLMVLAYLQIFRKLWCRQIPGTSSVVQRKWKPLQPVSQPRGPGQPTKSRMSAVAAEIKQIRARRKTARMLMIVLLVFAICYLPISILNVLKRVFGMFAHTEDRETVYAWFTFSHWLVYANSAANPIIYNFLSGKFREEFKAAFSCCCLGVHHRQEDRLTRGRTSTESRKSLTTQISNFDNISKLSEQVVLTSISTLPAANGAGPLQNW

Structure (SMILES)	IC50 (human orexin-2 receptor [1]) [nM]	Ki (human orexin-2 receptor [2]) [nM]	Ki (OX1 receptor (hOX1)) [nM]	IC50 (rat orexin-1 receptor) [nM]
C[C@@H]1CC[C@@H](Oc2cc(C#N)ccn2)CN1C(=O)c1ccc(F)cc1-c1ncccn1 [Example 34, 2-({(3R,6R)-1-[(4-fluoro-2-pyrimidin-2-ylphenyl)carbonyl]-6-methylpiperidin-3-yl}oxy)pyridine-4-carbonitrile]	48	3.5	868	> 10000
C[C@@H]1CC[C@@H](Oc2cc(C#N)ccn2)CN1C(=O)c1cc(F)ccc1-c1ncccn1 [Example 35, 2-({(3R,6R)-1-[(5-fluoro-2-pyrimidin-2-ylphenyl)carbonyl]-6-methylpiperidin-3-yl}oxy)pyridine-4-carbonitrile]	31	1	658	8040
C[C@@H]1CC[C@@H](Oc2cc(C#N)ccn2)CN1C(=O)c1c(F)cccc1-c1ncccn1 [Example 36, 2-({(3R,6R)-1-[(2-fluoro-6-pyimidin-2-ylphenyl)carbonl]-6-methylpiperidin-3-yl}oxy)pyridine-4-carbonitrile]	47	2.1	930	> 10000
